Laboratory results as given in EPA's ToxValDB 9.5.

System: Mus musculus
Conditions: oral
[1] = short-term, duration: 10 days, diet, M, C57BL/6, bone marrow: bone marrow: no. of CD19+ B-lymphoid cells + bone marrow: bone marrow: no. of early mature CD19+CD138-IgM+ B cells + bone …
[2] = short-term, duration: 10 days, diet, M, C57BL/6, serum AH50 + serum C3 + serum CH50
[3] = short-term, duration: 10 days, diet, M, C57BL/6, spleen: spleen: absolute weight + thymus: thymus: absolute weight
[4] = short-term, duration: 10 days, diet, M, C57BL/6, spleen: spleen: relative weight + thymus: thymus: relative weight
[5] = short-term, duration: 13 days, drinking water, F, C57BL/6, spleen: spleen CD8+ cells
[6] = short-term, duration: 14 days, gavage, M, BALB/c, relative mRNA expression of IL-1beta in spleen + thymus: apoptosis in thymus cells
[7] = short-term, duration: 14 days, gavage, M, BALB/c, relative mRNA expression of IL-1beta in thymus + spleen: apoptosis in spleen cells
[8] = short-term, duration: 14 days, gavage, M, Kunming, COX-2 in liver tissue
[9] = short-term, duration: 14 days, gavage, M, Kunming, CRP in liver tissue + liver: IL-6 levels
[10] = short-term, duration: 15 days, drinking water, F, C57BL/6, IgG antibody titer (SRBC) + IgM antibody titer (SRBC) + spleen: spleen: absolute weight + spleen: spleen: relative weight
[11] = short-term, duration: 15 days, drinking water, F, C57BL/6, IgM antibody titer (DNP)
[12] = short-term, duration: 15 days, drinking water, F, C57BL/6, IgM antibody titer (SRBC) + spleen: spleen: relative weight
[13] = short-term, duration: 15 days, drinking water, F, C57BL/6, spleen: spleen: absolute weight + spleen: spleen: relative weight + thymus: thymus: absolute weight + thymus: thymus: relative weight
[14] = short-term, duration: 15 days, drinking water, F, IgM antibody titer (SRBC)
[15] = short-term, duration: 21 days, drinking water, M, ICR, cytokine mRNA for IL-1 beta in spleen (relative to beta-actin) + expression of c-myc in thymus (relative to beta-actin) + mean body weight…
[16] = short-term, duration: 21 days, drinking water, M, ICR, cytokine mRNA for IL-6 in spleen (relative to beta-actin) + cytokine mRNA for TNF-alpha in spleen (relative to beta-actin) + expression of c…
[17] = short-term, duration: 28 days, gavage, M, BALB/c, testes: TNFa in testes
[18] = short-term, duration: 29 days, gavage, M, Crl:CD-1 (ICR) BR, IgM antibody titer (SRBC) + mean serum corticosterone + spleen: spleen: absolute weight + spleen: total number of splenocytes + thymus: …
[19] = short-term, duration: 29 days, gavage, M, Crl:CD-1 (ICR) BR, spleen: spleen: relative weight
[20] = subchronic, duration: 6 weeks, gavage, M, 129/SV, relative mRNA expression of TNF alpha/GAPDH in liver
[21] = subchronic, duration: 6 weeks, gavage, M, relative mRNA expression of TNF alpha/GAPDH in liver

Q: Which LOEL (short-term, duration: 10 days, diet, M, C57BL/6, blood serum: IL-6 levels + blood serum: IL-6 levels (+LPS in vivo) + blood serum: TNF-alpha levels (+LPS in vivo) + bone marrow: IL-6 levels…) does the source give for `O=C([O-])C(F)(F)C(F)(F)C(F)(F)C(F)(F)C(F)(F)C(F)(F)C(F)(F)F.[NH4+]` [Ammonium perfluorooctanoate] here?
A: 0.02%

Q: What about the NOEL (short-term, duration: 10 days, diet, M, C57BL/6, blood serum: TNF-alpha levels + bone marrow: IL-6 levels + spleen: IL-6 levels) of the same compound?
A: 0.02%

Q: What about the LOEL (short-term, duration: 10 days, diet, M, C57BL/6, bone marrow: bone marrow cellularity + bone marrow: bone marrow: no. of Gr1+CD11b+ myeloid cells + bone marrow: bone marrow: no. of immature…) of the same compound?
A: 0.02%

Q: And the NOEL (short-term, duration: 10 days, diet, M, C57BL/6, bone marrow: bone marrow cellularity + bone marrow: bone marrow: no. of Gr1+CD11b+ myeloid cells + spleen: spleen cellularity + spleen: …)?
A: 0.002%

Q: And the LOEL [1]?
A: 0.002%

Q: What about the NOEL [1] of the same compound?
A: 0.001%

Q: And the NOEL (short-term, duration: 10 days, diet, M, C57BL/6, intrahepatic immune cells: all leukocytes (CD45+) + intrahepatic immune cells: B cells (CD19+) + intrahepatic immune cells: CD138 (plasma …)?
A: 0.002%

Q: What about the LOEL (short-term, duration: 10 days, diet, M, C57BL/6, intrahepatic immune cells: all leukocytes (CD45+) + intrahepatic immune cells: B cells (CD19+) + intrahepatic immune cells: cytotoxic T …) of the same compound?
A: 0.002%

Q: What about the NOEL (short-term, duration: 10 days, diet, M, C57BL/6, liver: IFN-gamma levels (+Con A in vivo) + liver: IL-4 levels (+Con A in vivo) + liver: TNF-alpha levels (+Con A in vivo)) of the same compound?
A: 0.002%

Q: What about the LOEL (short-term, duration: 10 days, diet, M, C57BL/6, liver: IFN-gamma levels + liver: IL-4 levels + liver: IL-6 levels + liver: IL-6 levels (+Con A in vivo) + liver: TNF-alpha levels) of the same compound?
A: 0.002%

Q: And the LOEL [2]?
A: 0.02%

Q: And the NOEL [2]?
A: 0.01%

Q: And the NOEL (short-term, duration: 10 days, diet, M, C57BL/6, spleen: relative splenic DNA content)?
A: 0.02%

Q: What about the LOEL (short-term, duration: 10 days, diet, M, C57BL/6, spleen: spleen CD19+ cells + spleen: spleen CD3+ cells + spleen: spleen CD4+ cells + spleen: spleen CD8+ cells + spleen: spleen: absolute …) of the same compound?
A: 0.02%

Q: And the LOEL (short-term, duration: 10 days, diet, M, C57BL/6, spleen: spleen CD19+ cells + spleen: spleen CD4+ cells + spleen: spleen CD8+ cells + spleen: spleen cellularity + spleen: spleen NK1.1+ …)?
A: 0.02%

Q: What about the LOEL (short-term, duration: 10 days, diet, M, C57BL/6, spleen: spleen: absolute weight + spleen: spleen: relative weight + spleen: total splenic DNA content + thymus: relative thymic DNA content…) of the same compound?
A: 0.02%

Q: And the NOEL (short-term, duration: 10 days, diet, M, C57BL/6, spleen: spleen: absolute weight + thymocyte cell proliferation: G0/G1 phase 10 days recovery + thymocyte cell proliferation: G1/2 phase 2 …)?
A: 0.02%

Q: What about the LOEL [3] of the same compound?
A: 0.01%

Q: And the NOEL [3]?
A: 0.003%

Q: And the LOEL [4]?
A: 0.01%

Q: What about the NOEL [4] of the same compound?
A: 0.005%

Q: And the NOEL (short-term, duration: 10 days, drinking water, F, C57BL/6, spleen B220+ cells + spleen: spleen CD4+ cells + spleen: spleen CD8+ cells + spleen: spleen cellularity + spleen: spleen DN (CD4-/CD8-) …)?
A: 7.5 mg/kg-day

Q: What about the NOEL (short-term, duration: 10 days, gavage, F, C57BL/6, IgG antibody titer (SRBC) + spleen: spleen: absolute weight + spleen: spleen: relative weight + thymus: thymus: absolute weight + thymus: …) of the same compound?
A: 30 mg/kg-day

Q: And the LOEL (short-term, duration: 10 days, gavage, F, C57BL/6, IgM antibody titer (SRBC) + spleen: spleen: absolute weight + spleen: spleen: relative weight + thymus: thymus: absolute weight + thymus: …)?
A: 30 mg/kg-day

Q: What about the NOEL (short-term, duration: 13 days, drinking water, F, C57BL/6, spleen: spleen B220+ cells + spleen: spleen CD4+ cells + spleen: spleen cellularity + spleen: spleen DP (CD4+/CD8+) cells + spleen: spleen …) of the same compound?
A: 7.5 mg/kg-day

Q: What about the LOEL [5] of the same compound?
A: 7.5 mg/kg-day

Q: And the NOEL [5]?
A: 3.75 mg/kg-day

Q: What about the LOEL (short-term, duration: 13 days, drinking water, F, C57BL/6, spleen: spleen DN (CD4-/CD8-) cells) of the same compound?
A: 3.75 mg/kg-day

Q: What about the LOEL (short-term, duration: 14 days, gavage, M, BALB/c, change in body weight + spleen: apoptosis in spleen cells + spleen: spleen: relative weight + thymus: thymus: relative weight) of the same compound?
A: 5 mg/kg-day

Q: And the NOEL (short-term, duration: 14 days, gavage, M, BALB/c, relative mRNA expression of IL-1beta in spleen + relative mRNA expression of IL-1beta in thymus)?
A: 20 mg/kg-day

Q: What about the LOEL [6] of the same compound?
A: 10 mg/kg-day

Q: And the NOEL [6]?
A: 5 mg/kg-day

Q: What about the LOEL [7] of the same compound?
A: 20 mg/kg-day

Q: And the NOEL [7]?
A: 10 mg/kg-day

Q: And the LOEL [8]?
A: 5 mg/kg-day

Q: What about the NOEL [8] of the same compound?
A: 2.5 mg/kg-day

Q: What about the LOEL [9] of the same compound?
A: 10 mg/kg-day

Q: And the NOEL [9]?
A: 5 mg/kg-day

Q: What about the LOEL (short-term, duration: 14 days, gavage, M, Kunming, liver: Cox-2 levels + liver: CRP levels + liver: IL-6 levels) of the same compound?
A: 10 mg/kg-day

Q: What about the LOEL (short-term, duration: 14 days, gavage, M, Kunming, liver: IL-6 levels + liver: TNF-alpha levels) of the same compound?
A: 10 mg/kg-day

Q: And the LOEL [10]?
A: 25 mg/L

Q: And the NOEL [10]?
A: 12.5 mg/L

Q: And the LOEL [11]?
A: 1.88 mg/kg-day

Q: What about the NOEL [11] of the same compound?
A: 0.94 mg/kg-day

Q: What about the LOEL [12] of the same compound?
A: 30 mg/kg-day

Q: What about the NOEL [12] of the same compound?
A: 7.5 mg/kg-day

Q: And the NOEL (short-term, duration: 15 days, drinking water, F, C57BL/6, spleen: spleen B220+ cells + spleen: spleen cellularity + spleen: spleen DN (CD4-/CD8-) cells + spleen: spleen DP (CD4+/CD8+) cells)?
A: 7.5 mg/kg-day

Q: And the LOEL (short-term, duration: 15 days, drinking water, F, C57BL/6, spleen: spleen CD4+ cells + spleen: spleen CD8+ cells + spleen: spleen NK 1.1 cells)?
A: 3.75 mg/kg-day

Q: And the LOEL [13]?
A: 100 mg/L

Q: What about the NOEL [13] of the same compound?
A: 50 mg/L

Q: And the NOEL (short-term, duration: 15 days, drinking water, F, C57BL/6, spleen: spleen: absolute weight + spleen: spleen: relative weight + thymus: thymus: relative weight)?
A: 200 mg/L

Q: What about the LOEL (short-term, duration: 15 days, drinking water, F, C57BL/6, thymus: thymus: relative weight) of the same compound?
A: 7.5 mg/kg-day

Q: What about the LOEL [14] of the same compound?
A: 30 mg/kg-day

Q: What about the NOEL [14] of the same compound?
A: 7.5 mg/kg-day

Q: What about the NOEL (short-term, duration: 15 days, drinking water, F, spleen: spleen: relative weight + thymus: thymus: relative weight) of the same compound?
A: 30 mg/kg-day

Q: And the NOEL (short-term, duration: 15 days, gavage, F, C57BL/6, IgG antibody titer (SRBC) + spleen: spleen: absolute weight + spleen: spleen: relative weight + thymus: thymus: absolute weight + thymus: …)?
A: 30 mg/kg-day

Q: What about the LOEL (short-term, duration: 15 days, gavage, F, C57BL/6, IgM antibody titer (SRBC) + spleen: spleen: absolute weight + spleen: spleen: relative weight + thymus: thymus: absolute weight + thymus: …) of the same compound?
A: 30 mg/kg-day

Q: What about the NOEL (short-term, duration: 16 days, diet, M, C57BL/6, - HRBC IgG1: 160 reciprocal serum dilution + - HRBC IgG1: 320 reciprocal serum dilution + - HRBC IgG1: 40 reciprocal serum dilution + - HRBC…) of the same compound?
A: 0.02%

Q: And the LOEL (short-term, duration: 16 days, diet, M, C57BL/6, IgG1 antibody-producing cells (HRBC) + IgG2b antibody-producing cells (HRBC) + IgG3 antibody-producing cells (HRBC) + IgM antibody-producing…)?
A: 200 mg/kg-day

Q: And the LOEL (short-term, duration: 16 days, diet, M, C57BL/6, IgG1 antibody-secreting cells (HRBC) + IgG1 antibody level (HRBC 1:160) + IgG1 antibody level (HRBC 1:20) + IgG1 antibody level (HRBC 1:80…)?
A: 0.02%

Q: What about the LOEL [15] of the same compound?
A: 17.6 mg/kg-day

Q: And the NOEL [15]?
A: 2.64 mg/kg-day

Q: And the LOEL [16]?
A: 47.2 mg/kg-day

Q: What about the NOEL [16] of the same compound?
A: 17.6 mg/kg-day

Q: And the NOEL (short-term, duration: 21 days, drinking water, M, ICR, cytokine mRNA for IL-6 in thymus (relative to beta-actin) + cytokine mRNA for TNF-alpha in thymus (relative to beta-actin) + cytokine mRNA …)?
A: 47.2 mg/kg-day

Q: What about the LOEL (short-term, duration: 21 days, drinking water, M, ICR, spleen: spleen CD8+ cells + spleen: spleen DN (CD4-CD8-) cells + spleen: spleen DP (CD4+CD8+) cells) of the same compound?
A: 0.49 mg/kg-day

Q: And the LOEL (short-term, duration: 23 days, gavage, M, Crl:CD-1 (ICR) BR, IgM antibody titer (SRBC) + spleen: spleen: absolute weight + spleen: spleen: relative weight + spleen: total number of splenocytes + thymus…)?
A: 30 mg/kg-day

Q: And the NOEL (short-term, duration: 23 days, gavage, M, Crl:CD-1 (ICR) BR, mean serum corticosterone + spleen: incidence of spleen hematopoiesis + spleen: spleen: relative weight)?
A: 30 mg/kg-day

Q: What about the LOEL [17] of the same compound?
A: 5 mg/kg-day

Q: What about the NOEL [17] of the same compound?
A: 1.25 mg/kg-day

Q: And the LOEL [18]?
A: 10 mg/kg-day

Q: What about the NOEL [18] of the same compound?
A: 1 mg/kg-day

Q: What about the LOEL [19] of the same compound?
A: 1 mg/kg-day

Q: What about the NOEL [19] of the same compound?
A: 0.3 mg/kg-day

Q: And the LOEL [20]?
A: 5 mg/kg-day

Q: And the NOEL [20]?
A: 1 mg/kg-day

Q: What about the LOEL [21] of the same compound?
A: 5 mg/kg-day

Q: And the NOEL [21]?
A: 1 mg/kg-day
